Test [1] has as its target T1, human serotonin transporter (SERT) (Homo sapiens, UniProt P31645).
T1 construct: expressed in transfected cells; host or cells: CHO (hSERT-CHO), membrane preparation
The experiment in a line: Scintillation Proximity Assay (SPA) competition binding, [3H]citalopram, hSERT-CHO membranes. A general note: Scintillation proximity formats need no separation of bound from free tracer.

Test [2] deals with T2, human dopamine transporter (DAT) (Homo sapiens, UniProt Q01959).
T2 construct: expressed in transfected cells; host or cells: CHO (hDAT-CHO), membrane preparation
The experiment in a line: Scintillation Proximity Assay (SPA) competition binding, [3H]WIN-35,428, hDAT-CHO membranes.

For test [3], the target named is human ERG potassium channel (hERG) (Homo sapiens, UniProt Q12809). The test is described as follows: cell-based. How it is done:
Measure of the Effect on hERG Channel by Tail Current Recording Using In Vitro Rapid ICE™
The potency of the compounds of the invention in inhibiting human ERG potassium channel (hERG) tail current is assessed in a recombinant HEK293 cell line stably transfected with hERG cDNA using Rapid ICE™ (Rapid Ion Channel Electrophysiology) assay. Rapid ICE™ is an automated patch-clamp assay utilizing the PatchXpress 7000A system (Molecular Devices Corporation) or the QPatch HTX system (Sophion Bioscience A/S).
Briefly cells are cultivated for 24 to 72 hours before recordings in minimum essential medium supplemented with 10% FBS, 1% non-essential amino acids, 1% sodium pyruvate, 2 mM L-glutamine. The day of the experiment cells are detached with TrypLE and prepared to be loaded on the instrument. For PatchXpress cells are finally resuspended in 150 μl of Extracellular Buffer whereas for QPatch cells are resuspended in 7 ml Serum-Free Media containing 25 mM Hepes and Soybean trypsin inhibitor and immediately placed in the cell storage tank of the machine. The composition of the Extracellular Buffer is (mM): NaCl 137; KCl 4; CaCl2 1.8; MgCl2 1.0; D-glucose 10; N 2 hydroxyethylpiperazine-N′-2-ethanesulfonic acid (HEPES) 10; pH 7.4 with 1 M NaOH. The composition of the pipette solution is (mM): KCl 130; MgCl2 1.0; Ethylene glycol-bis(R-aminoethyl ether)-N,N,N′,N′-tetraacetic acid (EGTA) 5; MgATP 5; HEPES 10; pH 7.2 with 1 M KOH. The voltage protocol includes the following steps: step from −80 mV to −50 mV for 200 ms, +20 mV for 4.8 s, step to −50 mV for 5 s then step to the holding potential of −80 mV. Compounds of the invention are dissolved in DMSO and diluted in Extracellular Buffer to achieve final test concentrations (0.1, 1 and 10 μM) in 0.1% DMSO. The voltage protocol is run and recorded continuously during the experiment. The vehicle, corresponding to 0.1% DMSO in Extracellular Buffer, is then applied for 3 min followed by the test substance in triplicate. The standard combined exposure time is 5 min. The average of tail current amplitude values recorded from 4 sequential voltage pulses is used to calculate for each cell the effect of the test substance by calculating the residual current (% control) compared with vehicle pre-treatment. Data are reported as % inhibition for each concentration tested and IC50 values are estimated using DataXpress or QPatch software. At least two cells are tested, more if results diverge.

Test [4] addresses T3, human norepinephrine transporter (NET) (Homo sapiens, UniProt P23975).
T3 construct: expressed in transfected cells; host or cells: CHO (hNET-CHO), membrane preparation
The test is described as follows: Scintillation Proximity Assay (SPA) competition binding, [3H]nisoxetine, hNET-CHO membranes.

Where [5] appears, read: read-out: pIC50 DAT (converted).

The structures appear in SMILES notation. Structures can show the parent of a compound that is named as a salt. Where two headings read alike, the source gives them in different places.

T1 sequence (P31645 whole entry): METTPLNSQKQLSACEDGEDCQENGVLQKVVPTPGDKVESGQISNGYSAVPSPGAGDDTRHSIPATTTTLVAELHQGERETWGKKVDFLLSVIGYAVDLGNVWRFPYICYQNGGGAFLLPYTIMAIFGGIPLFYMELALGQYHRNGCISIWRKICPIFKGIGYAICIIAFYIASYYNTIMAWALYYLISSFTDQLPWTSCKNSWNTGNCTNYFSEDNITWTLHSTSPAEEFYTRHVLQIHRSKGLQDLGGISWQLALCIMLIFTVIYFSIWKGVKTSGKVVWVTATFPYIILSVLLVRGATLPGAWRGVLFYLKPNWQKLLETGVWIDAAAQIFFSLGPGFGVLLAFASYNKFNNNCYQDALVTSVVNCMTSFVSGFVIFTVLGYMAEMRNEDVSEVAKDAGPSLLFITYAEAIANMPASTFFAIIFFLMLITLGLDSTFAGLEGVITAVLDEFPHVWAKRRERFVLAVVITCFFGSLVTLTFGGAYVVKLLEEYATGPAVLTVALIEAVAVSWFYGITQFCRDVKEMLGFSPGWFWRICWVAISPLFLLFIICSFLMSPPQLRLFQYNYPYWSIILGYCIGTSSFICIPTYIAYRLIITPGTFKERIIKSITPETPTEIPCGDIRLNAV
Sequence of human ERG potassium channel (hERG) (Q12809 whole entry): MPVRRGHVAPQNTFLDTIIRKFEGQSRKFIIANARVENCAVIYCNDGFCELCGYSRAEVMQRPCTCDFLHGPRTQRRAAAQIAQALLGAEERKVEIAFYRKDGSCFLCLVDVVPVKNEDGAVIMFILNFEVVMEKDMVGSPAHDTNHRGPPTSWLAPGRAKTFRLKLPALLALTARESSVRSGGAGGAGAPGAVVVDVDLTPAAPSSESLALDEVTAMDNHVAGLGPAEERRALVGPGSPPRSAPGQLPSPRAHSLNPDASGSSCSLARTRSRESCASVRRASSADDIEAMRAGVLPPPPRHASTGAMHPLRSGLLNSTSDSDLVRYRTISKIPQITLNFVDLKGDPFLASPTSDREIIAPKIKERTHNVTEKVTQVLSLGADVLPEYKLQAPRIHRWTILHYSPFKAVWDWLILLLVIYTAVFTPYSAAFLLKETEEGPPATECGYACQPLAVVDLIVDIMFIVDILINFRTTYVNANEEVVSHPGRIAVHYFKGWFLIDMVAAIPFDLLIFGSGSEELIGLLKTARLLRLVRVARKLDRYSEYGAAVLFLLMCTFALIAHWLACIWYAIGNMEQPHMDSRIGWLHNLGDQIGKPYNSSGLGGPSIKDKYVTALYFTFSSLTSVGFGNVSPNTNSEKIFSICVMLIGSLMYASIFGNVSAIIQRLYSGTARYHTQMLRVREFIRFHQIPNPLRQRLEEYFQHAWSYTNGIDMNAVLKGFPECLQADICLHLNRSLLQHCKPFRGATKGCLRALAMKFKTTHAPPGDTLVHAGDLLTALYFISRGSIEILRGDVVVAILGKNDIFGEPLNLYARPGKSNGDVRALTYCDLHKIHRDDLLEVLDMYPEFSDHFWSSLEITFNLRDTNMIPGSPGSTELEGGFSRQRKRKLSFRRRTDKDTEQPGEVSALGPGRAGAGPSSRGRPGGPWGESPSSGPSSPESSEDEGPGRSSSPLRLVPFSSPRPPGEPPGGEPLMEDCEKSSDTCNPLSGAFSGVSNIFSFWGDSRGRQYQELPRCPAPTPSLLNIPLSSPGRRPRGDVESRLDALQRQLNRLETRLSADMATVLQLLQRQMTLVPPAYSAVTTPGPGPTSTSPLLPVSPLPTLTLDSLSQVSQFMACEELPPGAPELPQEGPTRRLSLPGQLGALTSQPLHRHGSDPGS
T2 sequence (Q01959 whole entry): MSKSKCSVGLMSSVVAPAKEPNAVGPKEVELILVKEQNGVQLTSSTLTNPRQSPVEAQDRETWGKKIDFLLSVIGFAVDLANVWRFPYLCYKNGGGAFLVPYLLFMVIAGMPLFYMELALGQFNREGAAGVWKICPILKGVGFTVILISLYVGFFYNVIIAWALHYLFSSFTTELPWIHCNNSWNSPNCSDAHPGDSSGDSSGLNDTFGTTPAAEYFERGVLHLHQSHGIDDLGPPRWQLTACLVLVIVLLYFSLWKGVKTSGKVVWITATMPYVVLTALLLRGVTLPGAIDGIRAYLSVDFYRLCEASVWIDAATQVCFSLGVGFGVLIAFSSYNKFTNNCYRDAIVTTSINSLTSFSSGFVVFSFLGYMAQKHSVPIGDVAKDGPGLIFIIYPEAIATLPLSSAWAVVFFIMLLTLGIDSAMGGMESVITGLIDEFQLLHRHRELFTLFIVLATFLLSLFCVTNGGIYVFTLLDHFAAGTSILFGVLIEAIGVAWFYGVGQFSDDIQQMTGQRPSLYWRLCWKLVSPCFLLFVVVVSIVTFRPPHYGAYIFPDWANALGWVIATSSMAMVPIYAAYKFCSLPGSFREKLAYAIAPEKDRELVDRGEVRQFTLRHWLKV
T3 sequence (P23975 whole entry): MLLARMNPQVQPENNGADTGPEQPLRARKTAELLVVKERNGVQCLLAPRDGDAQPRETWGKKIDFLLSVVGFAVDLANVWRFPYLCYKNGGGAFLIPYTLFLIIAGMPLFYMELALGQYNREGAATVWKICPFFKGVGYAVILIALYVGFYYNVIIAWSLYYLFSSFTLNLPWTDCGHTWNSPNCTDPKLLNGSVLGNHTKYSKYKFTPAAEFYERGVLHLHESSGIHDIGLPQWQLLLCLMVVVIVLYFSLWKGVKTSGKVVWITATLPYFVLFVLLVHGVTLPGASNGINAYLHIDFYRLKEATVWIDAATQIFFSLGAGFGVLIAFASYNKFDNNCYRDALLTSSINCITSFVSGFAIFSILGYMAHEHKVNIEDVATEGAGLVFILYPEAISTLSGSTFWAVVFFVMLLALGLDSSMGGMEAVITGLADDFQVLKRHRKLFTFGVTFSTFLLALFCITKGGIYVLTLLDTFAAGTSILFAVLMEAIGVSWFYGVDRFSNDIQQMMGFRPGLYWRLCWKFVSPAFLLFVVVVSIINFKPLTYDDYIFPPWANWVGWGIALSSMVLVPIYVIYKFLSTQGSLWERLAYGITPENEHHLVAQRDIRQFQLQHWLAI

As to `FC1=CCNC[C@]12CCN(C(c1ccc(F)cc1)c1ccc(F)cc1)C2` (single isomer, unassigned) [Example 18, (5S or 5R)-2-[bis(4-fluorophenyl)methyl]-10-fluoro-2,7-diazaspiro[4.5]dec-9-ene], the IC50 was 9330 nM in test [1], 30.2 nM in test [2] (pIC50 DAT), 3160 nM in test [3] and 1860 nM in test [4].

For `Fc1ccc(C(c2ccc(F)cc2)N2CCC3(CNCCC34OCCO4)C2)cc1` (stereo not shown) [Example 6, 8-[bis(4-fluorophenyl)methyl]-1,4-dioxa-8,12-diazadispiro[4.0.4^6.4^5]tetradecane], the values for the IC50 in test [1], in test [2] (setting [5]) and in test [4] were 3390 nM, 309 nM and 4470 nM, respectively.

Consider `Clc1ccc(C(c2ccc(Cl)cc2)N2CCC3(CNCCO3)C2)cc1` (stereo not shown) [Example 30, 2-[bis(4-chlorophenyl)methyl]-6-oxa-2,9-diazaspiro[4.5]decane], for which the results for the IC50 in test [1], in test [2] (setting [5]) and in test [4] were 912 nM, 151 nM and 2400 nM, respectively.

As for `Fc1ccc(C(c2ccc(F)cc2)N2CCC3(CCNCC3)C2)cc1` [Example 27, 2-[bis(4-fluorophenyl)methyl]-2,8-diazaspiro[4.5]decane], the IC50 in test [1] is 3470 nM; in test [2] (setting [5]) it was 148 nM; in test [3], 2510 nM; in test [4], 1700 nM.

As for `Fc1ccc(C(c2ccc(F)cc2)N2CCCC3(CCNC3)C2)cc1` (stereo not shown) [Example 24, 7-[bis(4-fluorophenyl)methyl]-2,7-diazaspiro[4.5]decane], the IC50 in test [1] is 11000 nM; in test [2] (setting [5]), 537 nM; in test [4], 295 nM.

Consider `Fc1ccc(C(c2ccc(F)cc2)N2CCC3(CC2)CNCCS3)cc1` [Example 32, 9-[bis(4-fluorophenyl)methyl]-1-thia-4,9-diazaspiro[5.5]undecane], for which the IC50 in test [1] is 2340 nM; in test [2] (pIC50 DAT), 58.9 nM; in test [4] it was 2450 nM.

Consider `O=C1CCNC[C@@]12CCN(C(c1ccc(F)cc1)c1ccc(F)cc1)C2` (single isomer, unassigned) [Example 9, (5R or 5S)-2-[bis(4-fluorophenyl)methyl]-2,7-diazaspiro[4.5]decan-10-one dihydrochloride salt], for which the IC50 in test [1] was 10700 nM; in test [2] (setting [5]), 263 nM; in test [3] (hERG tail current, HEK293 cells, read-out: pIC50 hERG (converted)), 5010 nM; in test [4], 2400 nM.

As to `O[C@@H]1CCNC[C@@]12CCN(C(c1ccc(F)cc1)c1ccc(F)cc1)C2` (single isomer, unassigned) [Example 13, 2-[bis(4-fluorophenyl)methyl]-2,7-diazaspiro[4.5]decan-10-ol], the values for the IC50 in test [1], in test [2] (setting [5]) and in test [4] were 19500 nM, 174 nM and 4270 nM, respectively.

Consider `CN1CCC(=O)C2(CCN(C(c3ccc(F)cc3)c3ccc(F)cc3)C2)C1` (stereo not shown) [Example 2, 2-[bis(4-fluorophenyl)methyl]-7-methyl-2,7-diazaspiro[4.5]decan-10-one], for which the IC50 is 21900 nM in test [1], 372 nM in test [2] (setting [5]), 7940 nM in test [3] and 22400 nM in test [4].

For `CN1CCCC2(CCN(C(c3ccc(F)cc3)c3ccc(F)cc3)C2)C1` (stereo not shown) [Example 23, 2-[bis(4-fluorophenyl)methyl]-7-methyl-2,7-diazaspiro[4.5]decane], the IC50 in test [1] was 4270 nM; in test [2] (setting [5]), 115 nM; in test [4], 5010 nM.

With `Fc1ccc(C(c2ccc(F)cc2)N2CCC3(CCCNC3)CC2)cc1` [Example 26, 9-[bis(4-fluorophenyl)methyl]-2,9-diazaspiro[5.5]undecane], the values for the IC50 in test [1], in test [2] (setting [5]) and in test [4] were 5250 nM, 135 nM and 2000 nM, respectively.

`O=C1CCNC[C@@]12CCN(C(c1ccc(F)cc1)c1ccc(F)cc1)C2` (single isomer, unassigned) [Example 7, (5R or 5S)-2-[bis(4-fluorophenyl)methyl]-2,7-diazaspiro[4.5]decan-10-one]: the IC50 in test [1] is 14100 nM; in test [2] (setting [5]), 162 nM; in test [4], 2140 nM.

Consider `CO/N=C1\CCNC[C@]12CCN(C(c1ccc(F)cc1)c1ccc(F)cc1)C2` (single isomer, unassigned) [Example 15, (5S or 5R,10E)-2-[bis(4-fluorophenyl)methyl]-N-methoxy-2,7-diazaspiro[4.5]decan-10-imine], for which the IC50 in test [1] was 4790 nM; in test [2] (setting [5]), 204 nM; in test [4], 2000 nM.

As to `O[C@@H]1CCNC[C@]12CCN(C(c1ccc(F)cc1)c1ccc(F)cc1)C2` (single isomer, unassigned) [Example 11, 2-[bis(4-fluorophenyl)methyl]-2,7-diazaspiro[4.5]decan-10-ol], the IC50 in test [1] is 12900 nM; in test [2] (setting [5]), 224 nM; in test [4] it was 3550 nM.

As to `Clc1ccc(C(c2ccc(Cl)cc2)N2CCC3(CCNCC3)C2)cc1` [Example 28, 2-[bis(4-chlorophenyl)methyl]-2,8-diazaspiro[4.5]decane], the values for the IC50 in test [1], in test [2] (setting [5]) and in test [4] were 676 nM, 316 nM and 1230 nM, respectively.

With `Fc1ccc(C(c2ccc(F)cc2)N2CCC3(CCNCC34OCCO4)C2)cc1` (stereo not shown) [Example 20, 8-[bis(4-fluorophenyl)methyl]-1,4-dioxa-8,13-diazadispiro[4.0.4^6.4^5]tetradecane], the IC50 was 2090 nM in test [1], 28.8 nM in test [2] (pIC50 DAT) and 2000 nM in test [4].

`Fc1ccc(C(c2ccc(F)cc2)N2CCC3(CCCNC3)C2)cc1` (stereo not shown) [Example 22, 2-[bis(4-fluorophenyl)methyl]-2,7-diazaspiro[4.5]decane]: the results for the IC50 in test [1], in test [2] (setting [5]) and in test [4] were 6460 nM, 110 nM and 5750 nM, respectively.

As for `O[C@@H]1CCNC[C@]12CCN(C(c1ccc(F)cc1)c1ccc(F)cc1)C2` (single isomer, unassigned) [Example 12, 2-[bis(4-fluorophenyl)methyl]-2,7-diazaspiro[4.5]decan-10-ol], the IC50 was 17000 nM in test [1], 302 nM in test [2] (setting [5]) and 7940 nM in test [4].

As to `O=C1CCNCC12CCN(C(c1ccc(Cl)cc1)c1ccc(Cl)cc1)C2` (stereo not shown) [Example 19, 2-[bis(4-chlorophenyl)methyl]-2,7-diazaspiro[4.5]decan-10-one], the IC50 in test [1] was 1780 nM; in test [2] (setting [5]), 204 nM; in test [4] it was 3310 nM.

As to `COC1CCNCC12CCN(C(c1ccc(F)cc1)c1ccc(F)cc1)C2` (mixture of isomers) [Example 5, 2-[bis(4-fluorophenyl)methyl]-10-methoxy-2,7-diazaspiro[4.5]decane], the results for the IC50 in test [1], in test [2] (setting [5]) and in test [4] were 7410 nM, 145 nM and 3240 nM, respectively.

For the compound `O=C1CCNC[C@]12CCN(C(c1ccc(F)cc1)c1ccc(F)cc1)C2` (single isomer, unassigned) [Example 8, (5S or 5R)-2-[bis(4-fluorophenyl)methyl]-2,7-diazaspiro[4.5]decan-10-one], the IC50 is 7410 nM in test [1], 132 nM in test [2] (setting [5]) and 1380 nM in test [4].

For the compound `OC1CNCCC12CCN(C(c1ccc(F)cc1)c1ccc(F)cc1)C2` (stereo not shown) [Example 21, 2-[bis(4-fluorophenyl)methyl]-2,8-diazaspiro[4.5]decan-6-ol], the IC50 in test [1] was 6760 nM; in test [2] (setting [5]), 186 nM; in test [4] it was 6030 nM.

`O[C@@H]1CCNC[C@@]12CCN(C(c1ccc(F)cc1)c1ccc(F)cc1)C2` (single isomer, unassigned) [Example 14, 2-[bis(4-fluorophenyl)methyl]-2,7-diazaspiro[4.5]decan-10-ol]: the IC50 was 22400 nM in test [1], 200 nM in test [2] (setting [5]) and 1740 nM in test [4].

On to `Fc1ccc(C(c2ccc(F)cc2)N2CCCC3(CCNCC3)C2)cc1` [Example 25, 2-[bis(4-fluorophenyl)methyl]-2,9-diazaspiro[5.5]undecane], for which the values for the IC50 in test [1], in test [2] (setting [5]) and in test [4] were 1580 nM, 363 nM and 2400 nM, respectively.

The values above are taken from US20170260185A1 (priority 2014, published 2017).
